In patent publication US20090181003A1, “Regulation of S6 Kinsase Protein Activity and Related Methods” (priority 2005, published 2009):

Assays:
[1] = biological target: T1, recombinant purified S6K1 (Homo sapiens, UniProt P23443); experiment: In vitro kinase assay with recombinant purified S6K in presence or absence of deacetylase inhibitors; type: biochemical; conditions: presence or absence of TSA and nicotinamide
T1 construct: made in house; host or cells: insect cells (baculovirus)
Protocol: (§1) (A) The cell lines indicated (see text) were treated with TSA and nicotinamide for eight hours. Following lysis, proteins were resolved by SDS-PAGE and western blots were probed as labelled to evaluate S6K activation. (B) MKOC cells (see text) were treated as in (A) and analysed by western blotting. S6K1 was also immunoprecipitated from lysates and subjected to immune complex kinase assay.
Firstly, that TSA is not a specific inhibitor of HDAC activity but that it is also a direct S6K inhibitor in the classical sense. […] In order to test the former explanation, that TSA is a direct S6K inhibitor, in vitro kinase assays were conducted using recombinant purified S6K in the presence or absence of TSA and nicotinamide (FIG. 6C).

4EBP1 (target of mTOR) = experiment: Phospho-4EBP1 blotting in MKOC cells; type: cell-based, mouse; conditions: TSA treatment
Protocol: as §1
(§2) Histone deacetylase inhibitors downregulate S6K activity in a range of different cell types. In order to test the model that S6K acetylation may be playing a role in its de-activation, the effect of TSA on S6K activity was analysed in a number of cell types, some of which contain mutations in the pathways leading to S6K activation, thus affording a genetic analysis of this phenomenon. […] PC-3 is a PTEN-null prostate cancer cell line in which basal PKB and S6K activation is high due to deregulation of PI3K signalling. […] The MKOC cell line was derived from a renal tumour removed from a Tsc2^−/− mouse. Since these cells lack Tsc2, S6K activity is uncoupled from both PKB and the tuberous sclerosis complex heterodimer. […] It should be noted that, although the same trend (reduced S6K phosphorylation and activity following treatment with deacetylase inhibitors) is seen in all the cell lines tested, the magnitude of this effect does vary. […]

S6K = S6K activity after deacetylase inhibition in a range of cell types (western blot, immune complex kinase assay); type: cell-based
Protocol: as §1, §2

S6 kinases = experiment: S6 kinase acetylation in HEK 293 cells cotransfected with EE-tagged S6 kinases and p300 (anti-acetylated lysine immunoblot); type: cell-based; conditions: HEK 293 cells with overexpressed p300; TSA 660 nM for 12 hours
Protocol: In FIG. 2A, recombinant S6 kinases were acetylated in vitro using the purified acetyltransferase domain of p300 or full length PCAF and ^14C-labelled acetyl CoA. Proteins were resolved by SDS-PAGE and acetylated proteins were analysed by phosphorimaging (Bio-rad). In FIG. 2B, recombinant S6K2 or GST were subject to in vitro acetylation reactions with p300 and 14C AcCoA. Recombinant PKB/Akt, PKCa, PDK1 and PI3K (p85a/p110a) were purified using baculovirus expression system. In vitro acetylation assay was carried out as previously described. In FIG. 2D, HEK 293 cells were transfected with S6 kinases in the absence or presence of Gal4-p300 as shown. Cells were treated with medium containing either solvent control or TSA to a final concentration of 660 nM for twelve hours prior to harvesting. Recombinant S6 kinases were immunoprecipitated using the EE-antibody and acetylated S6 kinase was detected by western blotting with polyclonal acetylated lysine antibodies (Upstate). The level of immunoprecipitated S6K1 and S6K2 was analysed by reprobing the membranes with specific antibodies. The expression of Gal4-p300 was tested in total lysates using anti-Gal4 antibodies.
In order to test whether S6 kinase proteins are subject to acetylation within cells, HEK 293 cells were cotransfected with EE-tagged S6 kinases and p300. […]

S6 kinase = S6 kinase activation in C2C12 myoblasts by western blotting (pT412, phospho-rpS6), TSA dose course; type: cell-based; conditions: 18 hours, doses of 500 nM TSA and above
Protocol: In FIG. 6A (upper panel), C2C12 myoblasts were treated for 18 hours with increasing concentrations of TSA or with the structurally unrelated HDAC inhibitor, sodium butyrate. Endogenous S6 kinase activity was assessed by western blotting against pT412 and against phosho-rpS6. In another experiment, C2C12 cells were treated with 1 μM TSA or control for the times shown and S6 kinase activity was measured by in vitro kinase assay using purified ribosomes as substrate (FIG. 6B). A representative autoradiograph is shown beneath the graph.
Since phosphorylation of multiple residues in S6 kinases has a potent effect on their kinase activity, it was interesting to see whether acetylation, an alternative post-translational modification, may also modulate the S6 kinase enzyme activity. Although kinase acetylation has not been described to date, there are examples of enzymes whose activity is regulated by p300-mediated acetylation, including Fen 1 (Hasan et al. (2001) Mol. Cell. 7, 1221-1231) and DNA polymerase beta (Hasan et al. (2002) Mol. Cell. 10, 1213-1222). In order to test whether S6 kinase acetylation may affect its kinase activity in vivo, C2C12 myoblasts were treated with a dose course of TSA. S6 kinase activation was analysed by western blotting with an antibody specific for phospho-threonine 412 and also with an antibody against the phosphorylated form of rpS6. […]

S6K1 K516 acetylation = S6K1 K516 acetylation in serum-stimulated NIH 3T3 cells treated with signal transduction inhibitors (Ac-K516 immunoblot); type: cell-based; conditions: 50 nM Rapamycin, 20 μM LY294002 or 10 μM PD98059 30 minutes before serum stimulation, lysed after 1 hr
Protocol: In this study, NIN3T3 cells were starved and stimulated with serum for various period of time. Total cell lysates were separated by SDS-PAGE and immunoblotted with acetyl-K516 antibodies. In FIG. 10B, the effect of various cell signalling inhibitors on K516 acetylation is shown. In this study, NIH3T3 cells were starved and treated with 50 nM Rapamycin (mTor inhibitor), 20 μM LY294002 (phosphatidylinositol 3′-kinase inhibitor), 10 μM PD98059 (MAP kinase inhibitor) or vehicle alone thirty minutes before stimulation with serum. Then, cells were stimulated with serum for one hour and lysed. The supernatants of total lysates were separated by SDS-PAGE and Western blotted with acetyl-K516 antibodies. […] The wtS6K and K516R mutants were transiently expressed in Hek293 cells. Immunoprecipitated recombinant S6Ks and total cell lysates were resolved by gel electrophoresis and immunoblotted with antibodies specific for EE tag, pT412 and actin.
Furthermore, the effect of signal transduction inhibitors on K516 acetylation was studied in NIH 3T3 cell. In this experiment, cells were serum starved and treated with rapamycin, LY and PD for 30 minutes before serum stimulation. Cells were lysed 1 hr hour after stimulation and the lysates separated by SDS-PAGE and immunoblotted with Ac-K516, pT412 antibodies.

T1 sequence (P23443 whole entry): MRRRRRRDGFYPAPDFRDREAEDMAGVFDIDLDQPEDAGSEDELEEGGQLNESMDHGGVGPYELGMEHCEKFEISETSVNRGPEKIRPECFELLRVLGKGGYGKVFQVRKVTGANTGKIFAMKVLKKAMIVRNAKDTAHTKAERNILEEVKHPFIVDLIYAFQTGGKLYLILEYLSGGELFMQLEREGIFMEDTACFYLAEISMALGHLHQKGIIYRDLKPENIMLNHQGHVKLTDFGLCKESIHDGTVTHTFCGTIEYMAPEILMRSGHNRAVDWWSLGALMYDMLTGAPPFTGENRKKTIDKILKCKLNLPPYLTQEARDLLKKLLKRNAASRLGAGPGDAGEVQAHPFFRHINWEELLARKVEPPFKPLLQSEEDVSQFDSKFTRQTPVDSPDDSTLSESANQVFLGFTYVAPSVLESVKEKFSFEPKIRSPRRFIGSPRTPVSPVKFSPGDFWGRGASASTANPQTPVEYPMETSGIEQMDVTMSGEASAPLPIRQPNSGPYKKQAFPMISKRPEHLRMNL

Compound | S6K activity in vitro (direct kinase inhibition) [1] | phospho-4EBP1 phosphorylation status (4EBP1 (target of mTOR)) | S6K activity (S6K; MKOC cells (Tsc2-/- mouse renal tumour)) | S6K activity (S6K; PC-3 cells (PTEN-null prostate cancer cell line)) | level of S6 kinase acetylation (S6 kinases) | S6 kinase activation (phospho-threonine 412 and S6 protein phosphorylation) (S6 kinase) | acetylation of S6K1 at K516 (S6K1 K516 acetylation)
CC(/C=C/C(=O)NO)=C\[C@@H](C)C(=O)c1ccc(N(C)C)cc1 [TSA, Trichostatin A] | does not indicate that TSA inhibits S6K activity in vitro | unaffected | reduction of S6K activity | inhibited | significantly increased | potently inhibited | 
COc1cccc(-c2cc(=O)c3ccccc3o2)c1N [PD98059] |  |  |  |  |  |  | not affected
